Measurements from patent US10596254B2 (priority 2003, dated 2020).
Square brackets hold non-standard residues; d marks the D form. Ends that are not written are not given here. Cha = N[C@@H](CC1CCCCC1)C(=O)O

Tests used:
[1] = fmoc spps; Wang resin (substitution about 0.8 mmole/g), Novabiochem; HBTU/DIEA; conditions: conjugation step, scale approximately 0.22 mmole (0.4 g Fmoc-AA-Wang resin); for final hplc purity: Method B, 260 nm
[2] = tested on: targets labeled with I9V peptide; assay: Chromium release assay of immune splenocytes from immunized HLA A2/Kb mice, I9V-loaded targets; assay type: in vivo; conditions: two doses of 50 nmoles; E:T ratio of 100
Description: Fourteen days later, the spleens were retrieved. The CTL responses of the immune splenocytes were tested after one round of in vitro stimulation (IVS). […] […]. […] This experiment was repeated four times with similar results each time. Using a two-tailed T test, there was a significant difference of P<0.03 at all E:T ratios. […].
[…]; SEQ ID NO:10). See Hartmann et al., J. Immunol. 164:1617-1624, 2000. The chemical yield and purity of this conjugate were similar to the others synthesized above using CpG 1826 (murine). […] […] The CpG-ODN used in Conjugate 10 also is known under the trade names ProMune™ or Vaxmune™ (Coley Pharmaceutical Group).

[3] = tested on: recombinant vaccinia virus expressing the HIV-pol gene; set-up: species or system mice; conditions: mouse, in vivo
I9V-loaded JA2 cells = assay: Chromium release assay, cells from immunized HHD II mice, I9V-loaded JA2 targets; assay type: in vivo; conditions: three mice each
Excerpt: HHD II mice were immunized with 1 nmole of either Conjugate 7 or Conjugate 3 (which is the same as Conjugate 7 but also contains PADRE). […].
To address whether the defect in Conjugate 7 immunogenicity was the missing PADRE TH epitope, immunizations with Conjugate 7 plus PADRE TH were compared to immunizations with Conjugate 7 alone. […]. […] Further, the majority of the stimulating activity of the PADRE epitope is caused by the sequence itself, rather than the artificial junction caused by chimerizing the CTL and TH epitopes, since Conjugate 3 and Conjugate 7 plus PADRE in trans have similar immunogenicity. Similar fusion peptides, including a fusion peptide composed of PADRE and an HPV-specific CTL epitope, have been administered to volunteers and women with cervical neoplasia without causing observable autoimmunity

Row | Substance | final hplc purity [1] | step mass [1] | target cell lysis [2] [%] | protection against viral challenge [3] | immunogenicity (chromium release) (I9V-loaded JA2 cells)
1 | KSS:PADRE:S9L + Oligo 3 | about 70-80% pure | About 6.0 mg |  |  | 
2 | PADRE:I9V:N:S9L + Oligo 3 | 70-80% pure | About 8.0 mg |  |  | 
3 | AKXVAAWTLKAAAILKEPVHGV, X = cyclohexylalanine (AK[Cha]VAAWTLKAAAILKEPVHGV) [PADRE:I9V fusion peptide] |  |  | 8 | equivalently unprotected | little immunogenicity
